{
  "source": "patent US20020054941A1",
  "about": "“Methods and compositions to enhance tenderness and value of meat” (The Board of Regents of the University of Nebraska, priority 2000, published 2002)",
  "key": {"[1]": {"test_system": "semimembranosus beef muscles", "assay": "Warner-Bratzler shear force, pre-rigor injection of whole muscle", "conditions": "200 mM, calcium chloride 300 mM", "experimental": "(§1) Experiment were conducted to test the effects of pre-rigor injection of several compounds. Effects of these compounds on pH, color, tenderness and other related traits of low-value beef cuts were investigated. Ten steers (22 to 24 mo of age, 515 to 676 kg live weight) were slaughtered according to current industry procedures. Pre-rigor semimembranosus (from the round), triceps brachii and supraspinatus muscles (from the chuck) were excised, after evisceration (approximately 1 hour post-mortem), from both sides of the carcass. Muscle sections were randomly assigned to the treatments: sodium citrate (NaC; 200 mM), sodium fluoride (NaF; 200 mM), sodium acetate (NaA; 200 mM), and calcium chloride (CaCl2; 300 mM). The control samples remained on the carcass at 2° C. for 24 hours to simulate commercial conditions. Following a cooling, control muscles were removed from each carcass (4 replicates), vacuum packaged and transferred to the holding cooler with the other cuts at 2° C. Calcium chloride treatment was included to be compared with the other treatments.\n(§2) At 2 hours post-mortem, each muscle was injected with a volume equal to 8% of the muscle weight using a four-needle hand injector. The temperature of solutions were 4° C. Each muscle was individually treated (2% of solution was added to give a total of 10% of muscle weight) and tumbled in a 75-pound capacity tumbler (Röschermatic, Oshabrück, Germany) for 30 min to insure uniform distribution of the solution.\n(§3) Tenderness of samples was evaluated by measuring Warner-Bratzler shear force. Steaks (2.54-cm thick) from the middle of each muscle were cut and frozen at 3, 7 and 14 days postmortem. Frozen steaks (2.54 cm thick) were thawed at 4° C. for 24 hours and cooked on Farberware Open Hearth Broilers (Model 350A Walter Kidde, Bronx, N.Y.) to an internal temperature of 40° C., turned, and cooked to a final internal temperature of 70° C. (AMSA, 1995). Temperature was monitored using an OMEGA thermocouple thermometer type T (Omega Engineering, Inc., Stamford, Conn.) inserted into the geometric center of a steak. The cooked steaks were chilled 2 hours at 2° C., and then 8 cores (1.27-cm diameter) were removed parallel to the muscle fiber orientation. Cores were sheared once each on an Instron Universal Testing Machine model 55R1123 (Instron, Canton, Mass.) with a Warner-Braztler attachment. The Instron was set up with a 500 kg load cell, full scale load=1 (0-10 kg), and crosshead speed=250 mm/mim."}, "[2]": {"test_system": "supraspinatus beef muscles", "assay": "Warner-Bratzler shear force, pre-rigor injection of whole muscle", "conditions": "200 mM", "experimental": "as §1, §2, §3"}, "[3]": {"test_system": "triceps brachii beef muscles", "assay": "Warner-Bratzler shear force, pre-rigor injection of whole muscle", "conditions": "200 mM, calcium chloride 300 mM; for Shear force, 3 d: 3 d postmortem; for Shear force, 7 d: 7 d postmortem", "experimental": "as §1, §2, §3"}, "[4]": {"test_system": "Triceps brachii (TBR) steaks", "assay": "Consumer panel palatability ratings of steaks", "parameters": "species or system steers", "conditions": "for Flavor / Tenderness: TBR, 9-point hedonic scale", "experimental": "Thoracic limbs from 14 steers were chilled on the carcass (controls) or removed within 2 hours post-mortem and pumped to 10% of muscle weight with water, 200 mM or 400 mM sodium citrate solutions. The injections were performed at various sites along the muscle. The control remained on the carcass. Muscle pH and temperature were measured immediately prior to pumping. Experimental and control muscles were chilled at 2° C. for 24 hours. Steaks (2.54 cm thick) were removed after 24 hours from the Infraspinatus, Supraspinatus and Triceps brachii muscles and were either frozen immediately or aged for another 6 days and then evaluated. A consumer panel evaluated palatability juiciness, tenderness, connective tissue amount, and flavor desirability) on Infraspinatus and Triceps brachii steaks using 9-point hedonic scales (1 being very undesirable and 9 being very desirable) for each trait. Warner-Bratzler shear force values were determined on 1.27 cm-diameter cores from steaks that were broiled to an internal temperature of 70° C."}, "[5]": {"test_system": "semimembranosus beef muscles", "assay": "Glycogen content, pre-rigor injection of whole muscle", "experimental": "as §1, §2\n(§4) Samples of each muscle (approximately 100 g) were taken at 0 hour (before injection), 24, and 72 hours after injection for determination of pH, oxidation-reduction potential, glycogen content, R-values, NAD, and NADH. The samples were then immediately frozen in liquid nitrogen and stored at −80° C. until they were powdered and analyzed. Fresh muscle samples (approximately 20 g) were taken at 72 hours after injection and assayed immediately for water holding capacity and sarcomere length.\n(§5) Glycogen extraction was performed in duplicate with 3 g of frozen-powdered muscle sample, which was homogenized with 0.6 N perchloric acid. Amylo-α-1,4-α-1,6- glucosidase from Aspergillus niger (No. A3514. Sigma Chemical, St. Louis, Mo.) was used for the breakdown of the glycogen molecules to free glucose following the method described by Roehrig and Allred (1974). Homogenate was incubated for 2 hours at 37° C., then 100 μL of 3 N perchloric acid was added to precipitate the proteins. After centrifugation, the supernatant was stored at 0-4° C., until analyzed, which was within 2 weeks.\n(§6) The assay for glucose was run as described by Dalrymple and Hamm (1973) and Roehrig and Allred (1974), using glucose-6-phosphate dehydrogenase (No. G8878. Sigma Chemical, St. Louis, Mo.) and hexokinase (No. H5500. Sigma Chemical, St. Louis, Mo.). Briefly, the method involves an exoglucosidase, Amylogucosidase, from Aspergillus niger which hydrolyses the -α-D-(1-4) and -α-D-(1-6)-linkages of glycogen. The glucose formed is specifically determined with hexokinase and glucose-6-phosphate dehydrogenase. The glucose liberated after hydrolysis of glycogen is proportional to the increase of absorbance measured at 340 nm. Fifty μL of sample was incubated with 1 mL ATP, NADP, Glucose-6-phosphate dehydrogenase buffer and 5 μL hexokinase at 37° C. for 15 min. Absorbance was measured at 340 nm wavelength, light path=1 cm. The muscle glycogen content was calculated with the following formula: Glycogen (μmol glucose/g wet muscle weight)=111.882×absorbance. 111.882 is the dilution factor."}, "[6]": {"test_system": "supraspinatus beef muscles", "assay": "Glycogen content, pre-rigor injection of whole muscle", "experimental": "as §1, §2, §4, §5, §6"}, "[7]": {"test_system": "triceps brachii beef muscles", "assay": "Glycogen content, pre-rigor injection of whole muscle", "conditions": "200 mM, calcium chloride 300 mM", "experimental": "as §1, §2, §4, §5, §6"}, "[8]": {"conditions": "400 mM, Triceps brachii, day 1 and day 7, P<0.10, data not shown"}, "[9]": {"conditions": "24 h, 200 mM, calcium chloride 300 mM"}, "[10]": {"conditions": "72 h, 200 mM, calcium chloride 300 mM"}},
  "note": "Entries after “also recorded” stand apart in the source; their conditions may differ. Marks after values point to notes of the source that are not given here.",
  "data": [
    {"smiles": "O=C([O-])CC(O)(CC(=O)[O-])C(=O)[O-].[Na+].[Na+].[Na+]", "note": "[Sodium citrate, sodium citrate]", "values": [
      {"measurement": "Shear force, 3 d", "setting": "[1]; 3 d postmortem", "value": 5.14, "unit": "kg"},
      {"measurement": "Shear force, 7 d", "setting": "[1]; 7 d postmortem", "value": 4.41, "unit": "kg"},
      {"measurement": "Shear force, 14 d", "setting": "[1]; 14 d postmortem", "value": 3.96, "unit": "kg"},
      {"measurement": "Shear force, 3 d", "setting": "[2]; 3 d postmortem, calcium chloride 300 mM", "value": "5.06^c kg"},
      {"measurement": "Shear force, 7 d", "setting": "[2]; 7 d postmortem, calcium chloride 300 mM", "value": "4.89^b kg"},
      {"measurement": "reduced shear force compared with controls", "setting": "[2]; supraspinatus, 3 days post-mortem, CaCl2 300 mM", "value": 2.22, "unit": "kg"},
      {"measurement": "Shear force, 3 d", "setting": "[3]", "value": "4.54^c kg"},
      {"measurement": "Shear force, 3 d", "setting": "[3]; listed as NaC", "value": "most tender meat; also recorded: more tender"},
      {"measurement": "Shear force, 7 d", "setting": "[3]", "value": "4.20^c kg"},
      {"measurement": "Shear force, 7 d", "setting": "[3]; listed as NaC", "value": "lower shear force values than CaCl2"},
      {"measurement": "Shear force, 14 d", "setting": "[3]; 14 d postmortem", "value": 3.69, "unit": "kg"},
      {"measurement": "Flavor", "setting": "[4]; 200 mM, d1", "value": "5.23^a"},
      {"measurement": "Tenderness", "setting": "[4]; 200 mM, d1", "value": "4.81^b"},
      {"measurement": "Flavor", "setting": "[4]; 200 mM, d7", "value": "4.87^a"},
      {"measurement": "Flavor", "setting": "[4]; 400 mM, d1", "value": "5.30^a*"},
      {"measurement": "Tenderness", "setting": "[4]; 400 mM, d1", "value": "5.25^a"},
      {"measurement": "Flavor", "setting": "[4]; 400 mM, d7", "value": "5.18^a"},
      {"measurement": "Tenderness", "setting": "[4]; 400 mM, d7", "value": "5.48^a"},
      {"measurement": "Connective tissue amount rating vs controls", "setting": "[4]; [8]", "value": "more desirable"},
      {"measurement": "Juiciness rating vs controls", "setting": "[4]; [8]", "value": "more desirable"},
      {"measurement": "Glycogen, 0 h", "setting": "[5]; 0 h (before injection)", "value": 65.12, "unit": "μmol/g muscle"},
      {"measurement": "Glycogen, 24 h", "setting": "[5]; [9]", "value": "52.83^a μmol/g muscle"},
      {"measurement": "Glycogen, 72 h", "setting": "[5]; [10]", "value": "45.65^a μmol/g muscle"},
      {"measurement": "Glycogen, 0 h", "setting": "[6]; 0 h (before injection)", "value": 45.18, "unit": "μmol/g muscle"},
      {"measurement": "Glycogen, 24 h", "setting": "[6]; [9]", "value": 30.43, "unit": "μmol/g muscle"},
      {"measurement": "Glycogen, 72 h", "setting": "[6]; [10]", "value": "22.65^ab μmol/g muscle"},
      {"measurement": "Glycogen, 0 h", "setting": "[7]; 0 h (before injection)", "value": 38.74, "unit": "μmol/g muscle"},
      {"measurement": "Glycogen, 24 h", "setting": "[7]; 24 h", "value": "32.93^b μmol/g muscle"},
      {"measurement": "Glycogen, 72 h", "setting": "[7]; 72 h", "value": "27.58^b μmol/g muscle"}
    ]}
  ]
}
